PMC10268404, “Insight into broad substrate specificity and synergistic contribution of a fungal α-glucosidase in Chinese Nong-flavor daqu” (Microbial Cell Factories, 2023)

Legend:
[1] = tested on: T1, NFAg31A (also printed NFEg31A), product of ORF15963; experiment: HPAEC-PAD of released glucose, Michaelis-Menten fit; assay type: biochemical; details: pH 7.0, 45 ℃, 15 min, 0.25 µM enzyme
T1 construct: 960 aa ORF without 30 aa signal peptide (primer-derived start M-VKHENFKK, end REWRI), incl; C-terminal DUF5100; 6xHis kept, printed C-terminal (but reverse primer holds a stop, so probably N-terminal pET-28a tag); E. coli BL21(DE3)
Source text: HPAEC-PAD of released glucose, Michaelis-Menten fit on NFAg31A (also printed NFEg31A), product of ORF15963

[2] = tested on: T1, NFAg31A (also printed NFEg31A), product of ORF15963; experiment: p-nitrophenol release at […] nm, Michaelis-Menten fit; assay type: biochemical; details: pH 7.0, 45 ℃, 15 min, 0.25 µM enzyme

Row | Km [1] [mM] | Km [2] [mM] | Structure (SMILES)
1 | 3.9 ± 0.3 | – | OC[C@H]1O[C@H](O[C@H]2C(O)O[C@H](CO)[C@@H](O)[C@@H]2O)[C@H](O)[C@@H](O)[C@@H]1O (stereo partly shown) [Kojibiose]
2 | – | 0.55 ± 0.06 | O=[N+]([O-])c1ccc(O[C@H]2O[C@H](CO)[C@@H](O)[C@H](O)[C@H]2O)cc1 [pNPαG, p-Nitrophenyl-α-D-glucopyranoside]
3 | 11.5 ± 0.7 | – | OC[C@H]1O[C@H](O[C@H]2[C@H](O)[C@@H](O)C(O)O[C@@H]2CO)[C@H](O)[C@@H](O)[C@@H]1O (stereo partly shown) [Maltose]
4 | 19.3 ± 2.5 | – | OC[C@H]1O[C@H](O[C@H]2[C@H](O)[C@@H](CO)OC(O)[C@@H]2O)[C@H](O)[C@@H](O)[C@@H]1O (stereo partly shown) [Nigerose]
